Measurements taken from US10988523B2, “Modified lipidated Relaxin B chain peptides and their therapeutic use” (Sanofi, priority 2018, dated 2021).
*1 amine or outer side, *2 acyl side, *3 side chain or, on linkers, in order; H or OH if unused. Where a SMILES comes first, the peptide text is derived from it. Side-chain parts run from the residue outwards. [ ]: non-standard residue; d: D form. The star is where a group is joined. X11 = CCCCCCCCCCCCCCCC(=O)N[C@@H](CCC(=O)NCCCC[C@H](NC(=O)CC[C@H](NC(=O)CC[C@H](NC(=O)CC[C@H](NC(=O)CCC(=O)NCCCOCCOCCOCCCNC(=O)CCC(=O)NCCCOCCOCCOCCCNC(=O)CCC(=O)NCCCOCCOCCOCCCN*)C(=O)O)C(=O)O)C(=O)O)C(N)=O)C(=O)O; X3 = CCCCCCCCCCCCCCCC(=O)N[C@@H](CCC(=O)N[C@@H](CCC(=O)N[C@@H](CCC(=O)N[C@@H](CCC(=O)NCCCC[C@H](NC(=O)CCC(=O)NCCCOCCOCCOCCCNC(=O)CCC(=O)NCCCOCCOCCOCCCN*)C(N)=O)C(=O)O)C(=O)O)C(=O)O)C(=O)O; PEG12 = NCCOCCOCCOCCOCCOCCOCCOCCOCCOCCOCCOCCOCCC(=O)O; γGlu = O=C(O)[C@H](CCC(=O)[*:2])N[*:1]; Stearoyl = CCCCCCCCCCCCCCCCCC(=O)*; Palmitoyl = CCCCCCCCCCCCCCCC(=O)*; PEG4 = NCCOCCOCCOCCOCCC(=O)O; αMeK = C[C@](N)(CCCCN)C(=O)O; Nle = CCCC[C@H](N)C(=O)O; AEEA = NCCOCCOCC(=O)O; Aib = CC(C)(N)C(=O)O

Target: T1, RXFP1 (Homo sapiens, UniProt Q9HBX9)
T1 construct: OVCAR5 cells expressing endogenous RXFP1; endogenous in cells; host or cells: OVCAR5 cells
T1 sequence (Q9HBX9 1-757): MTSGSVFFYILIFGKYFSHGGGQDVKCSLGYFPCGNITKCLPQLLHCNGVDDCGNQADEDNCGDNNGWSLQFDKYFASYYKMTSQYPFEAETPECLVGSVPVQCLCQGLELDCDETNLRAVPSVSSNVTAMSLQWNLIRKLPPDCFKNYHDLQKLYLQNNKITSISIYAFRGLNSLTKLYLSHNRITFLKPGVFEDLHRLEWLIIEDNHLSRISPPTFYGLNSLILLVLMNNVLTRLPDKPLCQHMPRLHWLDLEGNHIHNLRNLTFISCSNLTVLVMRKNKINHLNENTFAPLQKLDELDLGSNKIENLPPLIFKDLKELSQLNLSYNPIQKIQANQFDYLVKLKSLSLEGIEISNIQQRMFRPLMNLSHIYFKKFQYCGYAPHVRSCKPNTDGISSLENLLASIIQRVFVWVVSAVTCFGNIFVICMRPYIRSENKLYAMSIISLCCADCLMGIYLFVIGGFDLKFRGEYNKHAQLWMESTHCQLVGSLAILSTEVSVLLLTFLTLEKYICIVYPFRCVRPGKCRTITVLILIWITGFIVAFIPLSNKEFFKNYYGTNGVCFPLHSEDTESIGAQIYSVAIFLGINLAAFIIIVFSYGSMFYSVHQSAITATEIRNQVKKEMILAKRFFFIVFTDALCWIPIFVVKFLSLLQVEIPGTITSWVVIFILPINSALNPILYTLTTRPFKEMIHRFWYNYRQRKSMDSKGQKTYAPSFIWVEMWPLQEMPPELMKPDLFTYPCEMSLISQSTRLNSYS
Test: OVCAR5 cAMP assay (HTRF), RXFP1 agonist activity
Assay type: cell-based
Conditions: for EC50: OVCAR5 cells, cAMP HTRF, read-out: EC50 (nM), OVCAR 5 cells (cAMP); for Emax: OVCAR-5, maximal cAMP relative to H2-relaxin maximum (100%), read-out: EMax, OVCAR 5 cells (cAMP)
In short: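 cAMP accumulation readout: after 1 mM IBMX for 40 min, endogenous-RXFP1 OVCAR5 cells got rising peptide concentrations without FCS, 30 min, 37° C, then lysis with HTRF cAMP reagents. Nonlinear regression gave EC50; Emax expressed relative to H2-relaxin maximum, same occasion.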

EC50 [nM]	Emax [%]	SMILES
0.17	93	CCCCCCCCCCCCCCCC(=O)N[C@@H](CCC(=O)N[C@@H](CCC(=O)N[C@@H](CCC(=O)N[C@@H](CCC(=O)NCCOCCOCC(=O)NCCOCCOCC(=O)NCCOCCOCC(=O)NCCOCCOCC(=O)NCCCC[C@H](NC(=O)[C@H](CCCCNC(C)=O)NC(=O)[C@H](C)NC(=O)[C@H](CCCNC(=N)N)NC(=O)[C@](C)(CCCCN)NC(=O)[C@H](CO)NC(=O)[C@H](Cc1ccccc1)NC(=O)[C@@H](NC(=O)[C@H](CO)NC(=O)[C@H](CCC(N)=O)NC(=O)CNC(=O)[C@H](CCC(=O)O)NC(=O)C(C)(C)NC(=O)C(C)(C)NC(=O)[C@@H](NC(=O)[C@H](CCCCNC(C)=O)NC(=O)[C@H](C)NC(=O)[C@H](CCCNC(=N)N)NC(=O)[C@@H](NC(=O)[C@H](CCCCN)NC(=O)[C@H](CCC(=O)O)NC(=O)[C@H](CCCNC(=N)N)NC(=O)CNC(=O)[C@H](CCC(=O)O)NC(=O)[C@H](CC(C)C)NC(C)=O)C(C)C)[C@@H](C)CC)[C@@H](C)O)C(N)=O)C(=O)O)C(=O)O)C(=O)O)C(=O)O [compound 191] (Ac-LEGREKVRAK(Ac)I[Aib][Aib]EGQSTFS[αMeK]RAK(Ac)K([AEEA-AEEA-AEEA-AEEA-γGlu-γGlu-γGlu-γGlu-Palmitoyl])-NH2)
0.2	100	CCCCCCCCCCCCCCCC(=O)N[C@@H](CCC(=O)NCCCC[C@H](NC(=O)CC[C@H](NC(=O)CC[C@H](NC(=O)CC[C@H](NC(=O)CCC(=O)NCCCOCCOCCOCCCNC(=O)CCC(=O)NCCCOCCOCCOCCCNC(=O)CCC(=O)NCCCOCCOCCOCCCNC(=O)[C@H](CCCCNC(C)=O)NC(=O)[C@H](C)NC(=O)[C@H](CCCNC(=N)N)NC(=O)[C@](C)(CCCCN)NC(=O)[C@H](CO)NC(=O)[C@H](Cc1ccccc1)NC(=O)[C@@H](NC(=O)[C@H](CO)NC(=O)[C@H](CCCC)NC(=O)CNC(=O)[C@H](CCC(=O)O)NC(=O)C(C)(C)NC(=O)C(C)(C)NC(=O)[C@@H](NC(=O)[C@H](CCCCNC(C)=O)NC(=O)[C@H](C)NC(=O)[C@H](CCCNC(=N)N)NC(=O)[C@@H](NC(=O)[C@H](CCCCN)NC(=O)[C@H](CCC(=O)O)NC(=O)[C@H](CCCNC(=N)N)NC(=O)CNC(=O)[C@H](CCC(=O)O)NC(=O)[C@H](CC(C)C)NC(C)=O)C(C)C)[C@@H](C)CC)[C@@H](C)O)C(=O)O)C(=O)O)C(=O)O)C(N)=O)C(=O)O [compound 193] (Ac-LEGREKVRAK(Ac)I[Aib][Aib]EG[Nle]STFS[αMeK]RAK(Ac)-X11)
	90	CCCCCCCCCCCCCCCC(=O)N[C@@H](CCC(=O)N[C@@H](CCC(=O)N[C@@H](CCC(=O)NCCCC[C@H](NC(=O)COCCOCCNC(=O)COCCOCCNC(=O)COCCOCCNC(=O)[C@H](CCCCNC(C)=O)NC(=O)[C@H](CCCCN)NC(=O)[C@H](CCCNC(=N)N)NC(=O)C(C)(C)NC(=O)[C@H](CO)NC(=O)[C@H](Cc1c[nH]c2ccccc12)NC(=O)[C@@H](NC(=O)[C@H](CO)NC(=O)[C@H](CCCC)NC(=O)CNC(=O)[C@H](CCC(=O)O)NC(=O)C(C)(C)NC(=O)C(C)(C)NC(=O)[C@@H](NC(=O)[C@H](CCCCNC(C)=O)NC(=O)[C@H](C)NC(=O)[C@H](CCCNC(=N)N)NC(=O)[C@@H](NC(=O)[C@H](CCCCN)NC(=O)[C@H](CCC(=O)O)NC(=O)[C@H](CCCNC(=N)N)NC(=O)CNC(=O)[C@H](CCC(=O)O)NC(=O)[C@H](CC(C)C)NC(C)=O)C(C)C)[C@@H](C)CC)[C@@H](C)O)C(N)=O)C(=O)O)C(=O)O)C(=O)O [compound 114] (Ac-LEGREKVRAK(Ac)I[Aib][Aib]EG[Nle]STWS[Aib]RKK(Ac)[AEEA][AEEA][AEEA]K([γGlu-γGlu-γGlu-Palmitoyl])-NH2)
1.21	83	CCCCCCCCCCCCCCCC(=O)N[C@@H](CCC(=O)NCCCC[C@H](NC(=O)CC[C@H](NC(=O)CC[C@H](NC(=O)COCCOCCNC(=O)COCCOCCNC(=O)COCCOCCNC(=O)[C@H](CCCCNC(C)=O)NC(=O)[C@H](CCCCN)NC(=O)[C@H](CCCNC(=N)N)NC(=O)C(C)(C)NC(=O)[C@H](CO)NC(=O)[C@H](Cc1c[nH]c2ccccc12)NC(=O)[C@@H](NC(=O)[C@H](CO)NC(=O)[C@H](CCCC)NC(=O)CNC(=O)[C@H](CCC(=O)O)NC(=O)C(C)(C)NC(=O)C(C)(C)NC(=O)[C@@H](NC(=O)[C@H](CCC(N)=O)NC(=O)[C@H](C)NC(=O)[C@H](CCCNC(=N)N)NC(=O)[C@@H](NC(=O)[C@H](CCCCN)NC(=O)[C@H](CCC(=O)O)NC(=O)[C@H](CCCNC(=N)N)NC(=O)CNC(=O)[C@H](CCC(=O)O)NC(=O)[C@H](CC(C)C)NC(C)=O)C(C)C)[C@@H](C)CC)[C@@H](C)O)C(=O)O)C(=O)O)C(N)=O)C(=O)O [compound 119] (Ac-LEGREKVRAQI[Aib][Aib]EG[Nle]STWS[Aib]RKK(Ac)[AEEA][AEEA][AEEA][γGlu][γGlu]K([γGlu-Palmitoyl])-NH2)
	88	CCCCCCCCCCCCCCCCCC(=O)N[C@@H](CCC(=O)N[C@@H](CCC(=O)N[C@@H](CCC(=O)NCCCC[C@H](NC(=O)CCOCCOCCOCCOCCNC(=O)CCOCCOCCOCCOCCNC(=O)[C@H](CCCCNC(C)=O)NC(=O)[C@H](CCCCN)NC(=O)[C@H](CCCNC(=N)N)NC(=O)C(C)(C)NC(=O)[C@H](CO)NC(=O)[C@H](Cc1c[nH]c2ccccc12)NC(=O)[C@@H](NC(=O)[C@H](CO)NC(=O)[C@H](CCCC)NC(=O)CNC(=O)[C@H](CCC(=O)O)NC(=O)C(C)(C)NC(=O)C(C)(C)NC(=O)[C@@H](NC(=O)[C@H](CCCCNC(C)=O)NC(=O)[C@H](C)NC(=O)[C@H](CCCNC(=N)N)NC(=O)[C@@H](NC(=O)[C@H](CCCCN)NC(=O)[C@H](CCC(=O)O)NC(=O)[C@H](CCCNC(=N)N)NC(=O)CNC(=O)[C@H](CCC(=O)O)NC(=O)[C@H](CC(C)C)NC(C)=O)C(C)C)[C@@H](C)CC)[C@@H](C)O)C(N)=O)C(=O)O)C(=O)O)C(=O)O [compound 124] (Ac-LEGREKVRAK(Ac)I[Aib][Aib]EG[Nle]STWS[Aib]RKK(Ac)[PEG4][PEG4]K([γGlu-γGlu-γGlu-Stearoyl])-NH2)
	84	CCCCCCCCCCCCCCCCCC(=O)N[C@@H](CCC(=O)N[C@@H](CCC(=O)N[C@@H](CCC(=O)NCCCC[C@H](NC(=O)CCOCCOCCOCCOCCOCCOCCOCCOCCOCCOCCOCCOCCNC(=O)[C@H](CCCCNC(C)=O)NC(=O)[C@H](CCCCN)NC(=O)[C@H](CCCNC(=N)N)NC(=O)C(C)(C)NC(=O)[C@H](CO)NC(=O)[C@H](Cc1c[nH]c2ccccc12)NC(=O)[C@@H](NC(=O)[C@H](CO)NC(=O)[C@H](CCCC)NC(=O)CNC(=O)[C@H](CCC(=O)O)NC(=O)C(C)(C)NC(=O)C(C)(C)NC(=O)[C@@H](NC(=O)[C@H](CCCCNC(C)=O)NC(=O)C(C)(C)NC(=O)[C@H](CCCNC(=N)N)NC(=O)[C@@H](NC(=O)[C@H](CCCCN)NC(=O)[C@H](CCC(=O)O)NC(=O)[C@H](CCCNC(=N)N)NC(=O)CNC(=O)[C@H](CCC(=O)O)NC(=O)[C@H](CC(C)C)NC(C)=O)C(C)C)[C@@H](C)CC)[C@@H](C)O)C(N)=O)C(=O)O)C(=O)O)C(=O)O [compound 36] (Ac-LEGREKVR[Aib]K(Ac)I[Aib][Aib]EG[Nle]STWS[Aib]RKK(Ac)[PEG12]K([γGlu-γGlu-γGlu-Stearoyl])-NH2)
0.02	91	CCCCCCCCCCCCCCCC(=O)N[C@@H](CCC(=O)N[C@@H](CCC(=O)N[C@@H](CCC(=O)N[C@@H](CCC(=O)NCCCC[C@H](NC(=O)CCC(=O)NCCCOCCOCCOCCCNC(=O)CCC(=O)NCCCOCCOCCOCCCNC(=O)[C@H](CCCCNC(C)=O)NC(=O)[C@H](CCCCN)NC(=O)[C@H](CCCNC(=N)N)NC(=O)[C@](C)(CCCCN)NC(=O)[C@H](CO)NC(=O)[C@H](Cc1ccccc1)NC(=O)[C@@H](NC(=O)[C@H](CO)NC(=O)[C@H](CCCC)NC(=O)CNC(=O)[C@H](CCC(=O)O)NC(=O)C(C)(C)NC(=O)C(C)(C)NC(=O)[C@@H](NC(=O)[C@H](CCCCNC(C)=O)NC(=O)[C@H](C)NC(=O)[C@H](CCCNC(=N)N)NC(=O)[C@@H](NC(=O)[C@H](CCCCN)NC(=O)[C@H](CCC(=O)O)NC(=O)[C@H](CCCNC(=N)N)NC(=O)CNC(=O)[C@H](CCC(=O)O)NC(=O)[C@H](CC(C)C)NC(C)=O)C(C)C)[C@@H](C)CC)[C@@H](C)O)C(N)=O)C(=O)O)C(=O)O)C(=O)O)C(=O)O [compound 142] (Ac-LEGREKVRAK(Ac)I[Aib][Aib]EG[Nle]STFS[αMeK]RKK(Ac)-X3)
